The text below walks through data of ChEMBL document CHEMBL4433231 (Bioorg Med Chem Lett, 2019).

Chain of Vitamin K epoxide reductase complex subunit 1 (Q9BQB6 whole entry, one chain of several): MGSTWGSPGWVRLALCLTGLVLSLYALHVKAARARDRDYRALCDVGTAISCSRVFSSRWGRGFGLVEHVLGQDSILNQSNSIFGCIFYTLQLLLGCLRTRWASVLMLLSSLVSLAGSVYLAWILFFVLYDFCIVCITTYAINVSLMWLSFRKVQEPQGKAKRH

The experiment concerns the target Vitamin K epoxide reductase complex subunit 1 (Homo sapiens, UniProt Q9BQB6). Nature of the experiment: Inhibition of VKOR (unknown origin) in HEK293 expressing FIXgla-PC incubated for 48 hrs by ELISA. It is filed as cell-based. On the technique in general: An ELISA detects its analyte on a solid surface through an enzyme-linked reagent.
As to `CC(=O)CC(C1=C/C=C(C(=O)O)\C=C/C=C\1)c1c(O)c2ccccc2oc1=O` (racemic), 1930 nM corresponded to half-maximal inhibition (IC50).
The same measure for `CC(=O)CC(c1c(O)c2ccccc2oc1=O)C1CCCCC1` (racemic): 90.2 nM; for `CC1(O)CC(C2=C/C=C\C=C/C=C\2)c2c(c3ccccc3oc2=O)O1` (racemic): 4.5 nM.
For the compound `C[C@]1(O)C[C@H](C2=C/C=C\C=C/C=C\2)[C@]2(COc3ccccc3C2=O)n2c(=O)n(-c3ccccc3)c(=O)n21`, the half-maximal inhibitory concentration (IC50) came to 58.2 nM.
The same measure for `CC(=O)CC(c1c(O)c2ccccc2oc1=O)C1CCCCCCC1` (racemic): 59 nM.

The term IC50 denotes the point on the concentration scale where inhibition reaches its midpoint. Read a high IC50 as weaker potency in that assay.
